Values quoted from earlier work in PMC3616063, “Genomic and Structural Characterization of Kunitz-Type Peptide LmKTT-1a Highlights Diversity and Evolution of Scorpion Potassium Channel Toxins” (PLoS ONE, 2013).

Assays:
[1] = system: Herg channels; details: ref [11]
Excerpt: (§1) Over the last 400 million years, scorpions have evolved many peptide toxins that target different potassium channels. Numerous potassium channel toxins have been isolated from scorpions including those identified by proteomic and transcriptome analysis of scorpion venom glands [2]–[4]. These toxins are divided into α-KTx, β-KTx, γ-KTx, and κ-KTx subfamilies based on their similarity, [6]. Some of the toxins are specific inhibitors that serve as useful pharmacological tools and candidate drugs that target various potassium channels. Examples include charybdotoxin (ChTX), ...

[2] = system: BKCa channels; details: ref [8]
Excerpt: as §1

[3] = system: Kv1.3; details: ref [8]
Excerpt: as §1

[4] = system: IKCa channels; details: ref [10]
Excerpt: as §1

[5] = system: SKCa channels; details: ref [9]
Excerpt: as §1

## BeKm-1: scorpion toxin which inhibits Herg channels (RPTDIKCSESYQCFPVCKSRFGKTNGRCVNGFCDCF; UniProt Q9BKB7 22-57, looked up)
[1]
  Herg channel inhibition: inhibits Herg channels

## charybdotoxin [charybdotoxin (ChTX)]
[2]
  BKCa channel targeting: targeted toward Kv1.3 and BKCa channels
[3]
  Kv1.3 channel targeting: targeted toward Kv1.3

## maurotoxin (VSCTGSKDCYAPCRKQTGCPNAKCINKSCKCYGC; UniProt P80719 1-34, looked up) [maurotoxin (MTX)]
[4]
  IKCa channel targeting: targeted toward IKCa channels

## scyllatoxin (AFCNLRMCQLSCRSLGLLGKCIGDKCECVKH; UniProt P16341 1-31, looked up) [scyllatoxin (ScyTx)]
[5]
  SKCa channel inhibition: inhibits SKCa channels
